Assay results reported in patent US20190185865A1, “USE OF PROKARYOTIC TRANSCRIPTIONAL ACTIVATORS AS METABOLITE BIOSENSORS IN EUKARYOTIC CELLS” (Danmarks Tekniske Universitet, priority 2016, published 2019).
Values joined by “and” are separate entries in the source; they are usually repeats but may differ in a detail not shown here. Identical values can stand only once.

Biological target: T1, BenM^H110R, F211V, Y286N (Acinetobacter baylyi, UniProt O68014, F211V/H110R/Y286N)
T1 construct: expressed in transfected cells; host or cells: Saccharomyces cerevisiae; centromeric plasmid (gap repair) or chromosomal integration, REV1p
Experiment: CCM biosensor output versus CCM titers in CCM-producing yeast strains (HPLC, flow cytometry)
Type: cell-based
Protocol: The CCM production strains were cultivated in 24-deep well plate with air-penetrable lids (EnzyScreen) to test for the production of CCM. Colonies from the individual strain were inoculated in 1 mL synthetic drop-out medium (Sigma-Aldrich), selecting for URA, HIS and LEU markers, and grown at 30° C. with 250 rpm agitation at 5 cm orbit cast for 24 h. 300 μL of the overnight cultures were used to inoculate 3 mL mineral medium (pH 4.5) in 24-deep well plate and incubated for 24-72 h at the same conditions as above. Experiments were performed in triplicates. The culture broth was centrifuged 3,500×rpm and the supernatant analyzed for CCM concentration using HPLC. For this purpose, samples were analyzed for 45 min using Aminex HPX-87H ion exclusion column with a 1 mM H2SO4 flow of 0.6 mL/min. The temperature of the column was 60° C. Refractive index and UV detectors (Dionex) were used for detection of CCM (250 nm). CCM concentrations were quantified by comparison with the spectrum of the standards. […] Naringenin was quantified using a quadratic calibration curve with authentic standards ranging from 0.039 mg/I to 20 mg/I using QuanLynx software (Waters).
Events were analyzed using FlowJo software (TreeStar Inc.). […]

T1 sequence (O68014 whole entry H110R/F211V/Y286N): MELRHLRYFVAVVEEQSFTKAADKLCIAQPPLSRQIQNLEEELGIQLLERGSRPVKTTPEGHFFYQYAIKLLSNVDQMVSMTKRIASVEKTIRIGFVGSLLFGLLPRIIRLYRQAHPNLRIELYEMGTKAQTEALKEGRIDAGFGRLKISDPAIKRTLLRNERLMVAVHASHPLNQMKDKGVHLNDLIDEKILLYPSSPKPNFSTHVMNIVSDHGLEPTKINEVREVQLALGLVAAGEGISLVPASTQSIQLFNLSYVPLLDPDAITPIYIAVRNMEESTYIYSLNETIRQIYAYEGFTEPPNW

O=C(O)/C=C\C=C/C(=O)O [CCM, cis, cis-muconic acid]
titers at which GFP outputs were saturated (72 h of cultivation): > 1.41 mM and > 200 mg/L | correlation (r) between GFP output and CCM production titers (six CCM production strains and null strain, 24 h): 0.98
